In PubChem BioAssay (NCI):
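Exposure lasted 48 hours, with cells grown in 96-well plates and compounds tested at five concentrations. At the TGI there is no net growth.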

Assays:
Experiment in all cases: NCI anticancer screen, dose series, 48 h
786-0 renal = system: 786-0 renal
A498 renal = system: A498 renal
A549 NSCLC = system: A549 NSCLC
ACHN renal = system: ACHN renal
BT-549 breast = system: BT-549 breast
CAKI-1 renal = system: CAKI-1 renal
CCRF-CEM leukemia = system: CCRF-CEM leukemia
COLO 205 colon = system: COLO 205 colon
DU-145 prostate = system: DU-145 prostate
EKVX NSCLC = system: EKVX NSCLC
HCT-116 colon = system: HCT-116 colon
HCT-15 colon = system: HCT-15 colon
HL-60(TB) leukemia = system: HL-60(TB) leukemia
HOP-62 NSCLC = system: HOP-62 NSCLC
HOP-92 NSCLC = system: HOP-92 NSCLC
HS 578T breast = system: HS 578T breast
HT29 colon = system: HT29 colon
IGROV1 ovarian = system: IGROV1 ovarian
K-562 leukemia = system: K-562 leukemia
KM12 colon = system: KM12 colon
LOX IMVI melanoma = system: LOX IMVI melanoma
M14 melanoma = system: M14 melanoma
MALME-3M melanoma = system: MALME-3M melanoma
MCF7 breast = system: MCF7 breast
MDA-MB-231 breast = system: MDA-MB-231 breast
MDA-MB-435 = system: MDA-MB-435
MDA-N = system: MDA-N
MOLT-4 leukemia = system: MOLT-4 leukemia
NCI-H226 lung = system: NCI-H226 lung
NCI-H23 lung = system: NCI-H23 lung
NCI-H460 lung = system: NCI-H460 lung
NCI-H522 lung = system: NCI-H522 lung
NCI/ADR-RES ovarian = system: NCI/ADR-RES ovarian
OVCAR-3 ovarian = system: OVCAR-3 ovarian
OVCAR-4 ovarian = system: OVCAR-4 ovarian
OVCAR-5 ovarian = system: OVCAR-5 ovarian
OVCAR-8 ovarian = system: OVCAR-8 ovarian
PC-3 prostate = system: PC-3 prostate
RPMI-8226 leukemia = system: RPMI-8226 leukemia
RXF 393 renal = system: RXF 393 renal
SF-268 CNS = system: SF-268 CNS
SF-295 CNS = system: SF-295 CNS
SK-MEL-2 melanoma = system: SK-MEL-2 melanoma
SK-MEL-28 melanoma = system: SK-MEL-28 melanoma
SK-MEL-5 melanoma = system: SK-MEL-5 melanoma
SK-OV-3 ovarian = system: SK-OV-3 ovarian
SN12C renal = system: SN12C renal
SNB-75 CNS = system: SNB-75 CNS
SR leukemia = system: SR leukemia
SW-620 colon = system: SW-620 colon
T-47D breast = system: T-47D breast
TK-10 renal = system: TK-10 renal
U251 CNS = system: U251 CNS
UACC-257 melanoma = system: UACC-257 melanoma
UACC-62 melanoma = system: UACC-62 melanoma
UO-31 renal = system: UO-31 renal
HCC-2998 colon = system: HCC-2998 colon
SF-539 CNS = system: SF-539 CNS
SNB-19 CNS = system: SNB-19 CNS

Measured: TGI

COc1cc2nc3n(c(=O)c2cc1OC)CCCCC3
> 100 µM: 786-0 renal | A498 renal | A549 NSCLC | ACHN renal | BT-549 breast | CAKI-1 renal | CCRF-CEM leukemia | COLO 205 colon | DU-145 prostate | EKVX NSCLC | HCT-116 colon | HCT-15 colon | HL-60(TB) leukemia | HOP-62 NSCLC | HOP-92 NSCLC | HS 578T breast | HT29 colon | IGROV1 ovarian | K-562 leukemia | KM12 colon | LOX IMVI melanoma | M14 melanoma | MALME-3M melanoma | MCF7 breast | MDA-MB-231 breast | MDA-MB-435 | MDA-N | MOLT-4 leukemia | NCI-H226 lung | NCI-H23 lung | NCI-H460 lung | NCI-H522 lung | NCI/ADR-RES ovarian | OVCAR-3 ovarian | OVCAR-4 ovarian | OVCAR-5 ovarian | OVCAR-8 ovarian | PC-3 prostate | RPMI-8226 leukemia | RXF 393 renal | SF-268 CNS | SF-295 CNS | SK-MEL-2 melanoma | SK-MEL-28 melanoma | SK-MEL-5 melanoma | SK-OV-3 ovarian | SN12C renal | SNB-75 CNS | SR leukemia | SW-620 colon | T-47D breast | TK-10 renal | U251 CNS | UACC-257 melanoma | UACC-62 melanoma | UO-31 renal

CCOP(=O)(OCC)C(C)(CC)/N=C(\N)NC#N (stereo unspecified)
> 100 µM: 786-0 renal | A549 NSCLC | ACHN renal | BT-549 breast | CCRF-CEM leukemia | COLO 205 colon | DU-145 prostate | EKVX NSCLC | HCC-2998 colon | HCT-116 colon | HCT-15 colon | HL-60(TB) leukemia | HOP-62 NSCLC | HS 578T breast | HT29 colon | IGROV1 ovarian | K-562 leukemia | KM12 colon | LOX IMVI melanoma | M14 melanoma | MALME-3M melanoma | MCF7 breast | MDA-MB-231 breast | MDA-MB-435 | MDA-N | MOLT-4 leukemia | NCI-H226 lung | NCI-H23 lung | NCI-H460 lung | NCI/ADR-RES ovarian | OVCAR-3 ovarian | OVCAR-4 ovarian | OVCAR-5 ovarian | OVCAR-8 ovarian | PC-3 prostate | RPMI-8226 leukemia | RXF 393 renal | SF-268 CNS | SF-295 CNS | SF-539 CNS | SK-MEL-2 melanoma | SK-MEL-28 melanoma | SK-MEL-5 melanoma | SK-OV-3 ovarian | SN12C renal | SNB-19 CNS | SNB-75 CNS | SR leukemia | SW-620 colon | T-47D breast | TK-10 renal | U251 CNS | UACC-257 melanoma | UACC-62 melanoma | UO-31 renal
